In patent US10238670B2, “9-aminomethyl minocycline compounds and methods of use thereof in urinary tract infection (UTI) treatment” (Paratek Pharmaceuticals, Inc., priority 2016, dated 2019):
Converted amounts (≈) assume the structure as drawn.

Assays:
Test in all cases: In vitro MIC, 2010 surveillance isolates
[1] = test system: E. coli ESBL−; type: cell-based, Escherichia coli
[2] = test system: E. coli ESBL+; type: cell-based, Escherichia coli
[3] = test system: K. pneumoniae ESBL−; type: cell-based, Klebsiella pneumoniae
[4] = test system: K. pneumoniae ESBL+; type: cell-based, Klebsiella pneumoniae
[5] = test system: K. oxytoca; type: cell-based; design: MIC90: unit: µg/mL
[6] = test system: E. cloacae CeftazS; type: cell-based
[7] = test system: E. cloacae CeftazR; type: cell-based
[8] = test system: Enterobacter spp; type: cell-based
[9] = test system: A. baumanii; type: cell-based; conditions: for % R (resistance): CLSI breakpoints
[10] = test system: Acinetobacter spp; type: cell-based; conditions: for % R (resistance): CLSI breakpoints

## CO/N=C(\C(=O)N[C@@H]1C(=O)N2C(C(=O)[O-])=C(C[N+]3(C)CCCC3)CS[C@H]12)c1csc(N)n1 [Cefepime]
[1]; Asia/Pac, Eucast breakpoints
  % R (resistance): 0%
[1]; Asia/Pac, N=282
  MIC90: 1 µg/mL (≈ 2.08 µM)
[1]; Europe, Eucast breakpoints
  % R (resistance): 0.1%
[1]; Europe, N=1533
  MIC90: ≤ 0.12 µg/mL
[1]; L. Amer, CLSI breakpoints
  % R (resistance): 0%
[1]; L. Amer, N=389
  MIC90: ≤ 0.12 µg/mL
[1]; N America, CLSI breakpoints
  % R (resistance): 0%
[1]; N America, N=1172
  MIC90: ≤ 0.12 µg/mL
[2]; Asia/Pac, Eucast breakpoints
  % R (resistance): 73.5%
[2]; Asia/Pac, N=219
  MIC90: > 16 µg/mL
[2]; Europe, Eucast breakpoints
  % R (resistance): 69%
[2]; Europe, N=274
  MIC90: > 16 µg/mL
[2]; L. Amer, CLSI breakpoints
  % R (resistance): 47%
[2]; L. Amer, N=168
  MIC90: > 16 µg/mL
[2]; N America, CLSI breakpoints
  % R (resistance): 38.8%
[2]; N America, N=134
  MIC90: > 16 µg/mL
[3]; Asia/Pac, Eucast breakpoints
  % R (resistance): 0%
[3]; Asia/Pac, N=189
  MIC90: ≤ 0.12 µg/mL
[3]; Europe, Eucast breakpoints
  % R (resistance): 0%
[3]; Europe, N=361
  MIC90: ≤ 0.12 µg/mL
[3]; L. Amer, CLSI breakpoints
  % R (resistance): 0%
[3]; L. Amer, N=160
  MIC90: ≤ 0.12 µg/mL
[3]; N America, CLSI breakpoints
  % R (resistance): 0%
[3]; N America, N=671
  MIC90: ≤ 0.12 µg/mL
[4]; Asia/Pac, Eucast breakpoints
  % R (resistance): 65.3%
[4]; Asia/Pac, N=124
  MIC90: > 16 µg/mL
[4]; Europe, Eucast breakpoints
  % R (resistance): 76.8%
[4]; Europe, N=151
  MIC90: > 16 µg/mL
[4]; L. Amer, CLSI breakpoints
  % R (resistance): 69.4%
[4]; L. Amer, N=209
  MIC90: > 16 µg/mL
[4]; N America, CLSI breakpoints
  % R (resistance): 43.5%
[4]; N America, N=108
  MIC90: > 16 µg/mL
[5]; Asia/Pac, Eucast breakpoints
  % R (resistance): 23.5%
[5]; Asia/Pac, N=17
  MIC90: > 16 µg/mL
[5]; Europe, Eucast breakpoints
  % R (resistance): 4.4%
[5]; Europe, N=158
  MIC90: 1 µg/mL (≈ 2.08 µM)
[5]; L. Amer, N=25
  MIC90: >16 (16)
[5]; N America, CLSI breakpoints
  % R (resistance): 0%
[5]; N America, N=177
  MIC90: 0.25 µg/mL (≈ 0.52 µM)
[6]; Asia/Pac, Eucast breakpoints
  % R (resistance): 2%
[6]; Asia/Pac, N=100
  MIC90: ≤ 0.12 µg/mL
[6]; Europe, Eucast breakpoints
  % R (resistance): 1.1%
[6]; Europe, N=183
  MIC90: 0.25 µg/mL (≈ 0.52 µM)
[6]; L. Amer, CLSI breakpoints
  % R (resistance): 10.5%
[6]; L. Amer, N=57
  MIC90: > 16 µg/mL
[6]; N America, CLSI breakpoints
  % R (resistance): 0%
[6]; N America, N=210
  MIC90: ≤ 0.12 µg/mL
[7]; Asia/Pac, Eucast breakpoints
  % R (resistance): 38.1%
[7]; Asia/Pac, N=63
  MIC90: > 16 µg/mL
[7]; Europe, Eucast breakpoints
  % R (resistance): 25%
[7]; Europe, N=72
  MIC90: > 16 µg/mL
[7]; L. Amer, CLSI breakpoints
  % R (resistance): 26.2%
[7]; L. Amer, N=42
  MIC90: > 16 µg/mL
[7]; N America, CLSI breakpoints
  % R (resistance): 6.5%
[7]; N America, N=77
  MIC90: 16 µg/mL (≈ 33.3 µM)
[8]; Asia/Pac, Eucast breakpoints
  % R (resistance): 5.8%
[8]; Asia/Pac, N=52
  MIC90: 1 µg/mL (≈ 2.08 µM)
[8]; Europe, Eucast breakpoints
  % R (resistance): 2.4%
[8]; Europe, N=82
  MIC90: 1 µg/mL (≈ 2.08 µM)
[8]; L. Amer, CLSI breakpoints
  % R (resistance): 14.3%
[8]; L. Amer, N=42
  MIC90: > 16 µg/mL
[8]; N America, CLSI breakpoints
  % R (resistance): 1%
[8]; N America, N=101
  MIC90: 0.5 µg/mL (≈ 1.04 µM)
[9]; Asia/Pac, N=275
  MIC90: > 16 µg/mL
[9]; Europe, N=145
  MIC90: > 16 µg/mL
[9]; L. Amer
  % R (resistance): 78.9%
[9]; L. Amer, N=275
  MIC90: > 16 µg/mL
[9]; N America
  % R (resistance): 61.7%
[9]; N America, N=154
  MIC90: > 16 µg/mL
[10]; Europe, N=43
  MIC90: > 16 µg/mL
[10]; L. Amer
  % R (resistance): 55.6%
[10]; N America
  % R (resistance): 16.7%
[10]; N America, N=42
  MIC90: > 16 µg/mL
